In US20220356472A1, “METHODS AND COMPOSITIONS FOR TYPE 2 DIABETES THERAPY” (Sanford Burnham Prebys Medical Discovery Institute, priority 2019, published 2022):

How the values were obtained:
Assay type in all cases: cell-based, mouse
[1] = test system: islets isolated from WT C57BL/6 mice; assay: Gene expression in isolated islets treated with compounds
Description: For this purpose, the effect of a membrane-permeable intracellular Ca^2+-chelator, BAPTA-AM was tested on islets isolated from WT C57BL/6 mice. An overnight incubation with BAPTA-AM (10 μM) reduced both Ins1 and Ins2 mRNA levels (FIG. 6A, “Insulin” panel, Ctrl versus BAPTA-AM). […] On the other hand, tunicamycin (Tm, 0.5 μg/mL) in combination with BAPTA-AM rescued both Ins1 and Ins2 mRNA levels. Concomitantly, Chop and sXBP1 mRNAs, as well as MP mRNA were induced by Tm treatment (FIG. 6A, BAPTA-AM columns versus BAPTA/Tm columns).

[2] = test system: islets isolated from WT C57BL/6 mice; assay: as above; details: HFn 50 nM, vs Ctrl
WT and Chop βKO islets = assay: Ins1/Ins2 transcription in independent batch of islets treated with tunicamycin; details: tunicamycin 5 μg/mL
[3] = BAPTA-AM 10 μM, overnight incubation, vs Ctrl
[4] = Tm 0.5 μg/mL in combination with BAPTA-AM, vs BAPTA-AM

## CC(=O)OCOC(=O)CN(CC(=O)OCOC(C)=O)c1ccccc1OCCOc1ccccc1N(CC(=O)OCOC(C)=O)CC(=O)OCOC(C)=O [BAPTA-AM]
[1]; [3]
  Chop level: reduced
  Ins1 mRNA level: reduced
  Ins2 mRNA level: reduced
  sXBP1 level: reduced

## O=C(CC1NCCCC1O)Cn1cnc2cc(Br)c(Cl)cc2c1=O (centres unmarked) [halofuginone]
[2]
  ATF4 induction: pronounced ATF4 and Chop induction
  Chop induction: pronounced ATF4 and Chop induction
  Ins1 mRNA: reduced
  Ins2 mRNA: reduced

## tunicamycin
[1]; [4]
  Chop mRNA: induced
  Ins1 mRNA level: rescued
  Ins2 mRNA level: rescued
  MP mRNA: induced
  sXBP1 mRNA: induced
WT and Chop βKO islets
  Ins1/Ins2 transcription: positive regulation
